Numbers after ± are expanded uncertainties.
Experiment: Boiling temperature at pressure P
Conditions: 101.3 kPa; Liquid; Ebulliometric method (Recirculating still)

Structure (SMILES)	Boiling temperature at pressure P [°C]
COC(C)=O [methyl ethanoate]	57.1 ± 0.2
CC(=O)OCC(C)C [2-methylpropyl ethanoate]	116.40 ± 0.2
Cc1ccc(C)cc1 [1,4-dimethylbenzene]	138.34 ± 0.2
CC(=O)OCCC(C)C [3-methylbutyl ethanoate]	142.00 ± 0.2
